Test results taken from patent US20140242093A1, “METHODS AND COMPOSITIONS FOR MODULATING THE INNATE IMMUNE RESPONSE AND/OR MYOGENESIS IN A MAMMALIAN SUBJECT” (FRED HUTCHINSON CANCER RESEARCH CENTER, priority 2011, published 2014).

Experiments:
[1] = test system: HCT116, primary dendritic cells, JJ and FS; test: Real-time PCR of PRAMEF1 in transduced HCT116, primary dendritic cells, JJ and FS cell lines; format: cell-based, human
Experimental: HCT116 cells were infected with a control lenti-GFP or with lenti-DUX4-fl and the abundance of PRAMEF1 mRNA measured relative to a constitutively expressed gene, RPL13a.
Primary dendritic cells and the tumor cell lines derived from patients with chondrosarcomas designated JJ and FS (described in Jagasia, et al., 1996, supra) were transduced with lentiviral constructs expressing a control gene, green fluorescent protein (GFP), or DUX4fl. PRAMEF1 mRNA was measured by real-time PCR relative to a constitutively expressed control, RPL13a.

[2] = test system: human rhabdomyosarcoma cell line RD; test: Luciferase reporter assay with DUX4 binding sites; format: cell-based
Experimental: The DUX4 binding site in the ZSCAN4 pGL3-promoter construct was either reversed in orientation (as shown in FIG. 3D) or moved downstream of the reporter gene (as shown in FIG. 3E). […] Transfections and luciferase assays were done as in main methods. Data are given as the averages±SD of triplicates.
Transient DNA transfections of RD cells were performed using SuperFect (Qiagen) according to manufacturer specifications. Briefly, 3×10^5 cells were seeded per 35 mm plate the day prior to transfection. […] Cells were lysed 24 h post-transfection in Passive Lysis Buffer (Promega). Luciferase activities were quantified using reagents from the Dual-Luciferase Reporter Assay System (Promega) following manufacturer's instructions. Light emission was measured using BioTek Synergy2 luminometer. Luciferase data are given as the averages±SD of at least triplicates.

MaLR transcripts (THE1) = test: MaLR expression analysis by real-time PCR; format: cell-based, human; settings: RT-PCR, transduced muscle cells
Experimental: Real-time PCR was performed as described above. Water and minus RT controls were checked to ensure there was no amplification of these repetitive elements from residual or contaminating genomic DNA.

[3] = test system: cultured control skeletal muscle; test: RT-PCR validation of microarray gene targets; format: cell-based, human; settings: FIG. 1
Experimental: RNA was collected from cultured control skeletal muscle either transduced with a DUX4-fl expressing lentivirus (+) or not transduced (−). RPL13A was used as an internal standard. Total RNA was treated with DNase using TURBO DNA-free kit (Ambion) according to manufacturer's protocol. One μg of DNase-treated RNA was reverse transcribed to first strand cDNA with SuperScript III and anchored oligo dT (Invitrogen) at 52° C. for 1 h. Residual RNA was digested with RNase H at 37° C. for 20 min. cDNA was used in various PCR and real-time PCR reactions with primers listed below.
The primers shown below were designed to span exon-exon junctions where possible. Primers from select genes were also used in real-time PCR reactions to examine endogenous expression of targets in FSHD versus control samples described separately.

[4] = test system: Cultured human muscle cells (54-1); test: Conditioned media from lenti-DUX4-fl cells on lenti-GFP transduced cells, RT-PCR of IFIH1 and DEFB103A/B; format: cell-based
Experimental: It was determined that DEFB103A (SEQ ID NO:49) and DEFB103B (SEQ ID NO:107), each encoding the polypeptide DEFB103A/B set forth as SEQ ID NO:178, are both activated by lenti-DUX4-fl and not by lenti-DUX4-s or lenti-GFP. These represent transcripts from a duplicated beta-defensin 3 gene, which can function as a suppressor of inflammation. As a secreted protein, DEFB103A/B (SEQ ID NO:178) has the potential to suppress the innate immune response in cells infected with lenti-GFP. As an initial step toward testing this, the inventors transduced cells with lenti-DUX4-fl or nothing for 12 hrs, washed extensively and replaced the culture media, then after an additional 12 hrs transferred the conditioned media to cells infected 24 hrs earlier with lenti-GFP.
Cultured human muscle cells (54-1) were transduced with nothing (first lane panels A and B), lenti-DUX4-fl @ approximately MOI=10 (lane 2), lenti-DUX4-fl MOI ˜1 (lane 3), lenti-GFP MOI ˜10 (lane 4), lenti-GFP transduced cells exposed to conditioned media from lane 2 cells (lane 5), lenti-GFP transduced cells exposed to conditioned media from lane 3 cells (lane 6), lenti-GFP transduced cells exposed to media from lane 5 cells that was filtered through a 35 kD cut-off filter. The conditioned media from the lenti-DUX4 transduced cells suppresses the IFIH1 induction by lenti-GFP (Panel A).

## DUX4-fl: full-length DUX4 protein (SEQ ID NO:110), expressed from lentiviral or pCS2 vectors or in vitro translated
[1]
  PRAMEF1 gene expression: robust activation of the PRAMEF1 gene
[2]
  luciferase reporter with DUX4 binding sites from LTRs at a MaLR THE1D element: activated transcription of a luciferase reporter
[2]; TRIM48 or ZSCAN4 site, co-transfection in RD cells
  luciferase expression from pGL3-promoter reporter with 31 bp DUX4 binding site: significantly induced luciferase expression
MaLR transcripts (THE1)
  endogenous MaLR transcripts: induction of endogenous MaLR transcripts
[3]
  number of DUX4-fl regulated genes with differential expression validated by RT-PCR: 15 genes
[4]; RT-PCR
  expression of DEFB103A/B: induces expression of DEFB103A/B
[4]; qRT-PCR, no conditioned medium
  activation of IFIH1 by the construct: did not
